Measured values published in the METLIN SMRT retention time set (Domingo-Almenara et al. 2019).

Assay: gradient 5% acetonitrile 3 min, to 50% in 2 min, to 85% in 15 min, held 3 min, 100 µL/min
Conditions: column: Zorbax Extend-C18 2.1 x 50 mm; eluents: water / acetonitrile, 0.1% formic acid
Procedure, shortened: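 Retention times come from adduct peaks that were picked computationally and then checked by hand. The standards, pure and pooled in mixtures of ~100 molecules, were run on a Zorbax Extend-C18 column (2.1 × 50 mm, 1.8 μm) at 100 μL/min with water and acetonitrile, each with 0.1% formic acid. Detection was by quadrupole time-of-flight mass spectrometry in positive and negative ionization mode, with a dead volume of 40 μL and a dwell volume of 900 μL.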

Structure (SMILES)	RP-LC retention time
Cc1csc(-c2cc(S(=O)(=O)NCCCN3CCOCC3)cn2CC(=O)N2CCCCC2)n1	667 s
O=C(c1cccc(C(F)(F)F)c1)N1CCN(c2cc(-n3ccnc3)ncn2)CC1	606 s
CCc1nc2cc(-c3noc(-c4cccc(N(C)C)c4)n3)ccc2o1	1230 s
Cc1noc(C)c1-c1ccc(S(=O)(=O)N2CCN(C)CC2)cc1	610 s
CCC[C@H](Nc1nc(-c2ccc(NC(=O)NCC)c(OC)c2)ncc1C)c1cccnc1	666 s
C=CCNC(=O)c1cc2n(n1)CCCC2	646 s
COc1ccc(-n2c(C)nc3ccc(NC(=O)c4cccc([N+](=O)[O-])c4C)cc3c2=O)cc1	779 s
O=C(NCC1CC1)c1cn(-c2ccc(S(=O)(=O)N3CCCC3)cn2)cn1	762 s
CN(C)CCNc1ccc(-c2nc(-c3ccc(F)cc3)no2)cn1	668 s
O=C(N1CCC(Cc2nc(-c3ccccc3)n[nH]2)C1)C1(c2ccccc2)CC1 (stereo not drawn)	755 s
COc1ccc(C(=O)NC2CCN(c3cc(-c4cccs4)[nH]n3)C2)c(C)c1 (stereo not drawn)	712 s
COc1cccc(CN2N=C(C(=O)N3CCC(C)CC3)S(=O)(=O)c3ccc(C)cc32)c1	674 s
CCC(=O)N1CCc2cc(N3CC(C(=O)NCc4ccccc4C)CC3=O)ccc21 (stereo not drawn)	750 s
COC(=O)c1nc(NC(=O)Cn2nc3c(cc2=O)CCCCC3)sc1C	778 s
COc1ccccc1CN1CCc2nc(N3CCN(c4ccccc4F)CC3)ncc2C1	808 s
CCOc1ccc(NC(=O)N2CCCC(Cn3cnc4cccnc43)C2)cc1 (stereo not drawn)	640 s
CC1CCCN(C(=O)c2ccc3c(c2)Sc2ncccc2C(=O)N3C(C)C)C1 (stereo not drawn)	850 s
CC(C)N1C(=O)c2cccnc2Sc2cc(NC(=O)Cc3ccc(Cl)cc3)ccc21	954 s
COc1ccc(NC(=O)c2cn3c(n2)CCCC3)cc1Cl	609 s
O=C(c1cccc([N+](=O)[O-])c1)N1CCN(C(c2ccccc2)c2ccccc2)CC1	757 s
Cc1cc(-c2nnc(C3CCC3)o2)c(C)n1CC(=O)Nc1cccc(Cl)c1	960 s
Cc1ccc(NS(=O)(=O)c2cn(C(C)C)c3ncccc23)cc1F	861 s

Structure (SMILES)	RP-LC retention time
CNC(=O)c1cc(Nc2ccc3nc(Nc4ccc(Cl)c(C(F)(F)F)c4)[nH]c3c2)ccn1	631 s
Cc1noc(-c2ccc(=O)n(Cc3nc(-c4ccccc4)oc3C)c2)n1	804 s
CCc1nc2cc(-c3noc(-c4cccc(OC)c4)n3)ccc2o1	1210 s
CCOc1ccc(NC(=O)N2CCC(c3nc(C(=O)N4CCOCC4)c(C)o3)CC2)cc1	704 s
CCOC(=O)c1cc(OCC)c2c(ccc3ccccc32)n1	1080 s
CC1=C(c2ccc(C)cc2)S(=O)(=O)N=C1N1CCCN(C(=O)c2ccco2)CC1	653 s
COc1ccc(-c2noc(CN3N=NC4C(=O)N(c5ccc(OC)c(OC)c5)C(=O)C43)n2)c(OC)c1 (stereo not drawn)	800 s
CCN1CCN(CCNC(=O)c2c(N3CCCC3=O)c3cc(F)ccc3n2CC)CC1	614 s
O=C(NCC(F)F)c1cc2c(s1)N(CC1CC1)CCCC2	1000 s
COC(=O)c1ccccc1S(=O)(=O)N1CCc2c(c(-c3nnc(-c4ccc(F)cc4)o3)nn2C)C1	915 s
N#Cc1ccc(C(=O)Nc2cnn(-c3ncc(N4CCCCC4)cn3)c2)cc1	848 s
O=C(NCc1cccs1)c1cccnc1N1CCNC(c2ccccc2)C1 (stereo not drawn)	612 s
O=C(NCc1ccccc1)c1c(O)c2cccnc2n(Cc2ccccc2)c1=O	1370 s
CC1(C(=O)NC2CCCC2)Cn2cnc(C(=O)NCc3cccc(Cl)c3)c2C(=O)N1C1CC1 (stereo not drawn)	955 s
O=C(NC1CC1)[C@@H]1C[C@H](Oc2cccnc2)CN1C(=O)C1CC=CC1	567 s
COc1ccc(S(=O)(=O)N2C[C@@H]3C[C@H]2C[C@@H]3NC(=O)c2cccs2)cc1Cl	792 s
Cc1cccc(OCc2ccc(-c3nc(C#N)c(NCCN(C)C)o3)o2)c1	708 s
COCCN1CCn2cc(S(=O)(=O)Nc3ccc(OC)c(Cl)c3)cc2C1=O	726 s
COc1ccccc1NC(=O)Cn1c(-c2nc(C(C)C)no2)cccc1=O	927 s
O=C(CCSc1nnnn1-c1ccc(Cl)cc1)Nc1nccs1	776 s
c1ccc(C2(c3nc(-c4ccc(-n5cccn5)nc4)no3)CC2)cc1	1240 s
Cc1nc(N2CCOCC2)c2c(C(=O)Nc3ccc(Br)cc3C)c(C)oc2n1	909 s

Structure (SMILES)	RP-LC retention time
CC1CCCN(S(=O)(=O)c2cc(C(=O)N3CCCc4ccccc43)n(C)c2)C1 (stereo not drawn)	1060 s
Cc1ccc(CNC(=O)Nc2ccc3nncn3c2)cc1	680 s
CCCNC(=O)C1CCN(c2ccc(SCC(=O)Nc3cc(C)cc(C)c3)nn2)CC1	685 s
O=C(c1ccoc1)N1CCc2[nH]cnc2C1c1ccccc1 (stereo not drawn)	585 s
O=C(Nc1cc(-c2cccs2)no1)C1CCC1	862 s
CC(=O)Nc1c(C)cc(OCC(=O)O)cc1C	649 s
CC1=NN(c2cccc(C(=O)O)c2)C(=O)/C1=C\c1ccc(-c2ccc(Cl)c(C(=O)O)c2)o1	1050 s
Cn1c(=O)oc2cc(-c3noc(-c4cccc5[nH]ccc45)n3)ccc21	932 s
CCc1nnc2ccc(-c3noc(Cc4ccc(Cl)cc4)n3)cn12	932 s
O=C1CCN(C(=O)c2ccsc2)CCCCCCN1	652 s
CCc1ccc(S(=O)(=O)N2CCN(C3CCN(CCC(C)C)C3=O)CC2)cc1 (stereo not drawn)	736 s
CC(C)c1nccn1C1CN(C(=O)COc2ccc(F)cc2)C1	573 s
CSCC[C@H](NC(=O)COc1cc(C)cc2oc(=O)c3c(c12)CCC3)C(=O)O	769 s
Cc1cc(-c2nnc(C3CCC3)o2)c(C)n1CC(=O)NCc1ccccc1C(F)(F)F	960 s
COc1ccc(-c2oc3ccc(OC)cc3c2C(=O)O)cc1	879 s
O=C(CCC1CCCN(c2cc(NC3CC3)ncn2)C1)NCc1ccc(F)cc1 (stereo not drawn)	676 s
COc1ccc(Cn2c(=O)c3sccc3n(Cc3nc(-c4ccc(C)cc4)no3)c2=O)cc1	1060 s
CCN(CC)S(=O)(=O)c1ccc2c(c1)N(CC(=O)NCc1ccccc1C)C(=O)C1CCCCN21 (stereo not drawn)	1020 s
CCc1nc2cc(-c3noc(-c4cc(F)ccc4Cl)n3)ccc2o1	1270 s
Cc1ccc(-n2cc3c(N4CCCC(C(=O)NCCC5=CCCCC5)C4)ncnc3n2)cc1 (stereo not drawn)	792 s
CCC(C(=O)NCc1cccnc1)n1c2ccccc2c2cnn(C)c(=O)c21 (stereo not drawn)	615 s
COc1ccccc1C(=O)N1CCCC(c2nnc(C)s2)C1 (stereo not drawn)	646 s

Structure (SMILES)	RP-LC retention time
COCC(=O)N1CCC([C@H]2[C@@H](OC)C(=O)N2C(C)C)CC1	602 s
Cc1cc(NC(=O)N(C)Cc2nc3cc(C(=O)N(C)C)ccc3n2C)ccc1Br	662 s
CCc1noc(-c2ccc(-n3cnc(C(=O)NC(C)CC)c3)nc2)n1 (stereo not drawn)	828 s
COc1ccc(C(=O)Nc2nc(-c3ccc4c(c3)NC(=O)CO4)cs2)cc1OC	801 s
COC(=O)c1cnc2nc(C)ccc2c1Nc1cc(OC)c(OC)c(OC)c1	643 s
Fc1ccc(-c2nc(CC3CCNC3)no2)cc1 (stereo not drawn)	621 s
COCCN1C(=O)[C@H]2CN(Cc3ccc(C(C)C)cc3)C[C@H]2C1=O	674 s
COC(=O)C1=C(C)NC(=O)NC1c1cn(-c2ccccc2)nc1-c1ccc(F)cc1 (stereo not drawn)	857 s
COc1ccc(Cn2nc3ccc(S(=O)(=O)N4CCCC4)cn3c2=O)cc1	827 s
Cc1ccc(C)c(NC(=O)NC2CCN(c3ccc(F)cc3)C2=O)c1 (stereo not drawn)	842 s
O=C(NCCC1=CCCCC1)C(=O)Nc1ccc(Cl)cn1	1050 s
O=C(NC1CCCCCC1)C1CCCN(c2nccnc2Sc2ccccc2)C1 (stereo not drawn)	1170 s
O=c1c2sccc2n(Cc2nc(-c3ccc(Cl)c(F)c3)no2)c(=O)n1CCc1ccccc1	1280 s
Cc1cc(C2CCCN2C(=O)Nc2ccccc2C(F)(F)F)no1 (stereo not drawn)	895 s
Cn1c(=O)c(N2CCN(C(=O)c3cc(F)cc(F)c3)CC2)nc2cccnc21	860 s
Cc1ccc(S(=O)(=O)CC(=O)Nc2nc(-c3cccc([N+](=O)[O-])c3)cs2)cc1	993 s
COc1ccc(N2C=C(C(=O)N3CCCC3)S(=O)(=O)c3ccccc32)cc1OC	726 s
O=C(Cn1nc2c(cc1=O)CCCC2)Nc1ccc(N2CCCCS2(=O)=O)cc1	720 s
COc1ccc(-c2cn3c(CC(=O)Nc4cccnc4)csc3n2)cc1OC	581 s
O=C(CN1c2ccc(F)cc2-c2ccccc2S1(=O)=O)N1CCN(Cc2ccccc2)CC1	711 s
CS(=O)(=O)N1CCC(C(=O)NCc2ccccc2Cl)Oc2ccccc21 (stereo not drawn)	888 s
CC(C)c1nnc(-c2ccc(S(=O)(=O)N3CCN(C(C)C)CC3)o2)o1	608 s
